Test results from patent publication US6858739B2, “Indole and benzimidazole 15-lipoxygenase inhibitors” (Warner-Lambert Company, priority 2000, dated 2005).

Key:
[1] = biological target: T1, rabbit reticulocyte 15-LO (Oryctolagus cuniculus, UniProt P12530); experiment: 15-LO inhibition, rabbit reticulocyte enzyme (HPLC method of Auerbach et al.); format: biochemical; conditions: linoleic acid as substrate, incubation at 4° C. for 10 minutes
T1 construct: one utilizing rabbit reticulocyte 15-LO; from tissue; host or cells: rabbit reticulocytes
T1 sequence (P12530 1-663): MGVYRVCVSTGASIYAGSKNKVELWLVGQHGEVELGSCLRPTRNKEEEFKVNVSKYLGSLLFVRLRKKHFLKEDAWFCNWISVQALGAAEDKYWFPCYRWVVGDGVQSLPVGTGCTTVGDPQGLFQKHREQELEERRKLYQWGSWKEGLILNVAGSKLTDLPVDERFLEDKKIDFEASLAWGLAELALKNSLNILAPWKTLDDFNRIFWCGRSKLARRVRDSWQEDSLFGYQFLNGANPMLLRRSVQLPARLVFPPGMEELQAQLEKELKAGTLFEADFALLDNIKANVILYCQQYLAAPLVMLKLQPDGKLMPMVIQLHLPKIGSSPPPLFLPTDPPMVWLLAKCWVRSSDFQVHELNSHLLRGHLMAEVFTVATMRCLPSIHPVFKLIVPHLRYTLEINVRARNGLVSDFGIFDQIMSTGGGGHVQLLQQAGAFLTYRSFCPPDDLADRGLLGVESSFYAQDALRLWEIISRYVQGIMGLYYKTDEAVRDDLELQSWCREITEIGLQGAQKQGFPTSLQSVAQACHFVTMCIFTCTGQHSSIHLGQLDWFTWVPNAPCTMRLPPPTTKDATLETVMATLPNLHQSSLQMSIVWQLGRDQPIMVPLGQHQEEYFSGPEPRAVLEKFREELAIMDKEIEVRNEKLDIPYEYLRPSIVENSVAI
Protocol: (§1) The compounds described above are effective inhibitors of 15-LO when evaluated in standard assays routinely utilized to measure 15-LO activity. Specifically, representative compounds were evaluated by the methods described by Auerbach et al., Analytical Biochemistry, 1992;201:375-380. Two in vitro assays were utilized, one utilizing rabbit reticulocyte 15-LO, the other using human 15-LO. Both used linoleic acid as substrate, to enzymatically produce a peroxide oxidation product known as 13(S)-HPODE. N-Benzoyl leucomethylene blue was utilized as a colorimetric reagent for detection and quantification of the peroxide formation. Also, HPLC was utilized to quantify the oxidation following incubation at 4° C. for 10 minutes.
(§2) Data Column 1 gives the concentration of compound required to inhibit 50% of the activity of 15-LO (IC50) when measured by the HPLC method of Auerbach et al. using rabbit enzymes, and data Column 2 gives data from human 15-LO enzyme.

human 15-LO = biological target: T2, human 15-LO (Homo sapiens, UniProt P16050); experiment: 15-LO inhibition, human enzyme; format: biochemical; conditions: linoleic acid as substrate
T2 sequence (P16050 1-662): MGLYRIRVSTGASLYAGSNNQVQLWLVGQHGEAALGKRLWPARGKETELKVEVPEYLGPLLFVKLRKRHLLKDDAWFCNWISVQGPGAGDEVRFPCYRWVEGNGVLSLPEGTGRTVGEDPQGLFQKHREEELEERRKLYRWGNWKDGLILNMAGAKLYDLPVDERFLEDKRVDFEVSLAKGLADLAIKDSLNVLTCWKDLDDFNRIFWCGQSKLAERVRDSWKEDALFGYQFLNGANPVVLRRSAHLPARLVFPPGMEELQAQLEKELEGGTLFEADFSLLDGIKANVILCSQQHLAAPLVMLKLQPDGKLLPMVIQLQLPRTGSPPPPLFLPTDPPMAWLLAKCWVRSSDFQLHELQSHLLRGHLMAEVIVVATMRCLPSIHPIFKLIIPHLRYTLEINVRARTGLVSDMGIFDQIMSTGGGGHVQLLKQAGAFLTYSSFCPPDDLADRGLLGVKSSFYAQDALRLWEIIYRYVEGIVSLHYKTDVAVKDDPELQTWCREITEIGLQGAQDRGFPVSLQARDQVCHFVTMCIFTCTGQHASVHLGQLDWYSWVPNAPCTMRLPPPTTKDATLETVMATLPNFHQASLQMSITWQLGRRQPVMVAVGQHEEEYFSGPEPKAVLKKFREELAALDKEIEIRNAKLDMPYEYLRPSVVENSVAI
Protocol: as §1, §2

COc1ccc(-c2cc3cc(F)c(F)cc3[nH]2)cc1NCc1ccc(C#N)cc1 [Example 50, [5-(5,6-Difluoro-1H-indol-2-yl)-2-methoxy-phenyl]-(4-cyano-benzyl)-amine]
melting point: 158 to 159 °C | IC50 [1]: 74 nM | IC50 (human 15-LO): 116 nM
